In patent US20200390767A1, “Formulations of 4-(7-Hydroxy-2-isopropyl-4-oxo-4H-quinazolin-3-yl)-benzonitrile” (NOVARTIS AG, priority 2019, published 2020):
Converted amounts (≈) assume the structure as drawn.

Tests used:
[1] = tested on: temperature sensitivity; experiment: First in human study, hand immersion test at 49° C.; assay type: in vivo; conditions: water at 49° C., MAD part
Method: (§1) Safety assessments: Safety assessments consisted of collecting all adverse events (AEs), serious adverse events (SAEs), including systemic and ocular adverse events, along with their severity and relationship to study drug. Systemic safety assessments included regular monitoring of hematology, blood chemistry and urinalysis performed at study center and regular assessments of physical examination, vital signs (systolic and diastolic blood pressure, pulse rate, and body temperature), ECG, pregnancy and assessments of fertility and hand immersion test at 49° C. during MAD part. Ocular safety assessments included early treatment diabetic retinopathy study (ETDRS) visual acuity, intraocular pressure, slit-lamp biomicroscopy, corneal staining and dilated fundus exam.
For the hand immersion test, all subjects in the treatment cohorts withdrew their hand from water at 49° C. at a time interval between 0 to ≤50 secs.

[2] = Solubility of compound I in solvents; assay type: physicochemical
Text: As noted above, compound I is sparingly soluble in various media.

[3] = Pharmacokinetic study of exploratory formulations, single bilateral topical ocular dosing; assay type: in vivo; conditions: NZW rabbits
Method: A pharmacokinetics study was conducted to determine the ocular uptake of compound I following single bilateral topical ocular dosing of male NZW rabbits with the four exploratory formulations provided in Table 2: FID 121522, FID 121511, FID 121512, FID 121513.

[4] = tested on: PRK surgery patients; experiment: PRK clinical study, adverse events; assay type: in vivo, human
Text: Safety assessments consisted of collecting all AEs, SAES, with their severity and relationship to study drug. Only signs and symptoms greater than the listed ranges of either severity or duration were reported as AEs.
Adverse events and serious adverse events included an assessment of both systemic and ocular assessments. Systemic safety assessments included regular assessments of height and weight, vital signs, reporting medication errors including misuse/abuse, pregnancy reporting and early phase safety monitoring. The misuse/abuse, pregnancy reporting and early phase safety monitoring were not assessed for the study. Ocular safety assessments included the following: • Best-corrected visual acuity (BCVA) and uncorrected visual acuity (UCVA): Was measured at each visit using an ETDRS visual acuity chart at 4 meters (13 feet) or 1 meter (for patients that cannot read the 4 meter chart). The BCVA scoring was done based on the number of correctly read letters plus 30. If visual acuity was so poor that the patient could not read any of the largest letters at 1 meter, count fingers and hand movement vision and light perception was tested. • Intraocular Pressure (TOP): IOP measurements were conducted with applanation tonometry or Tonopen. • Dilated fundus exam: The dilated fundus examination included ophthalmoscopic assessments of the vitreous, retina/macula/choroid, and optic nerve. Evaluations for retinal tear/detachment, retinal hemorrhage, vitreous hemorrhage density, vitreous haze grading and abnormal findings were done and scored according to grading criteria. • Ocular hyperemia: Conjunctival redness of the bulbar conjunctiva in each eye at the slit lamp according to the McMonnies redness scale was graded. […] By adjusting the calibrated slit beam width and height, the maximum horizontal (wound width) and vertical dimensions (wound height) of the surgical epithelial wound was estimated. The evaluation was performed until wound closure and report of wound size as 0 horizontal and 0 vertical dimensions. • Slit-lamp biomicroscopy: Ocular signs (eyelids/conjunctiva, cornea, lens, and iris/anterior chamber) was assessed in both eyes by slit lamp biomicroscopy according to the grading criteria. • Blink rate: A blink was defined as a bilateral paroxysmal closure of the eyelids (duration <1 second) in the absence of a provoking external stimulus. Each blink assessment lasted for 2 min (or as close to 2 minutes as possible with minimum time 1 minute) and the obtained blink rate was averaged to calculate blink rate in blinks/min. • Tear production (Schirmer's test without anesthesia): The test was performed without anesthetic in both eyes simultaneously. Tear secretion was measured in millimeters of the length of strip wetted by tears. […] The strip was wetted with 1 drop of sterile saline and flicked to remove excess saline. The patient blinked several times to ensure dispersion of the dye throughout the tear film prior to grading on a scale of 0-3 (0=Normal, No staining; 1=Mild, Superficial stippling micropunctate staining; 2=Moderate, Macropunctate staining with some coalescent areas and 3=Severe, Numerous coalescent macropunctate areas and/or patches) for each of 5 zones (central plus 4 quadrants).
A total of 18 AEs were reported in 10 patients (25% of the 40 enrolled patients) of which twelve occurred after treatment with compound I, five after treatment with Vehicle and one occurred in one patient prior to dosing of the study drug. All AEs were either mild or moderate in severity.

[5] = tested on: healthy volunteers; experiment: First in human study, safety (SAD and MAD adverse events); assay type: in vivo; conditions: 8 times daily for 7 days
Method: This example describes a first-in-human study of compound I conducted in healthy volunteers. A total of 54 subjects were administered to study medication. Part 1 of the first in human study administered single ascending doses of 0.15%, 1.5%, 2.5% w/v (1 drop) of compound I in an eye drop.
Part 2 tested multiple ascending doses (MAD) of compound I, administering (i) 1 drop of 0.15%, 1.5%, 2.5%, 4 times daily (every 6 hours) for 7 days or (ii) 1 drop of 2.5%, 8 times daily (every 3 hours) for 7 days (supra-therapeutic dose) as eye drops.
as §1, with “exam. […]” for “exam.”

With CC(C)c1nc2cc(O)ccc2c(=O)n1-c1ccc(C#N)cc1 [Compound I, 4-(7-hydroxy-2-isopropyl-4-oxo-4H-quinazolin-3-yl)-benzonitrile] the “hand immersion time versus vehicle” value [1] was “no meaningful change in immersion time”, the solubility ([2]; isopropyl myristate, oil or lipid, solvent: Isopropyl Myrisate) was 90 µg/mL (≈ 295 µM) and the solubility ([2]; oil or lipid, solvent: Medium-Chain Triglycerides (Miglyol 812)) was 100 µg/mL (≈ 328 µM). The solubility ([2]; oil or lipid, solvent: Mineral Oil) was 30 µg/mL (≈ 98.3 µM), the solubility ([2]; oil or lipid, solvent: Oleyl Alcohol) was 120 µg/mL (≈ 393 µM) and the solubility ([2]; organic solvent or mixture, solvent: Diisopropyl Adipate) was 160 µg/mL (≈ 524 µM). It also gave a solubility ([2]; organic solvent or mixture, solvent: Ethanol) of 790 µg/mL (≈ 2590 µM), a solubility ([2]; organic solvent or mixture, solvent: Hexylene Glycol) of 280 µg/mL (≈ 917 µM) and a solubility ([2]; organic solvent or mixture, solvent: Isopropanol) of 330 µg/mL (≈ 1080 µM). For the same molecule, the solubility ([2]; organic solvent or mixture, solvent: Isosorbide) was 340 µg/mL (≈ 1110 µM), the solubility ([2]; organic solvent or mixture, solvent: Polyethylene Glycol 200) was 1620 µg/mL (≈ 5310 µM) and the solubility ([2]; organic solvent or mixture, solvent: Polyethylene Glycol 300) was 2040 µg/mL (≈ 6680 µM). For the same molecule, the solubility ([2]; organic solvent or mixture, solvent: Polyethylene Glycol 400) was 1660 µg/mL (≈ 5440 µM), the solubility ([2]; organic solvent or mixture, solvent: Propylene Carbonate) was 400 µg/mL (≈ 1310 µM) and the solubility ([2]; organic solvent or mixture, solvent: Propylene Glycol) was 1680 µg/mL (≈ 5500 µM). The solubility ([2]; solvent: Water) was 10 µg/mL (≈ 32.8 µM), the “exposure in cornea relative to aqueous humor and iris-ciliary body” value [3] was “approximately 10 times” and the Kp ([3]; male, rabbit, cornea / plasma, topical, read-out: exposure in cornea relative to plasma) was about 500. The “deaths, SAEs, discontinuations due to AEs” value ([4]; 40 enrolled patients) was “no deaths or SAEs”, the “eyes (treatment periods) with AEs of moderate severity” value ([4]; five AEs in four patients) was “four” and the “patients who experienced an AE only during this treatment” value ([4]; human, in vivo) was “Five”. The “relation of ocular AEs to study drug” value ([4]; human, in vivo) was “None of the AEs were suspected to be related”, the “patients who developed AEs after treatment” value ([4]; of 40 patients) was “Eight” and the “number of AEs after treatment” value ([4]; of a total of 18 AEs in 10 patients) was “twelve”. The “eyes with ocular AEs (mild severity)” value ([4]; six ocular AEs in four patients) was “three”, the “eyes (treatment periods) with non-ocular AEs” value ([4]; twelve non-ocular AEs in seven patients) was “six” and the “dose limiting adverse events” value ([5]; 2.5%) was “No dose limiting adverse events were identified”. The “Maximum Tolerated Dose (MTD)” value ([5]; eye drops, healthy volunteers) was 2.5%.
